According to patent EP0314302A2, “Herbicidal o-carbomethoxy-sulfonylureas” (E.I. DU PONT DE NEMOURS AND COMPANY, priority 1987, dated 1989):

Assays:
[1] = tested on: weed; experiment: Test 6 effect of surfactants, postemergence; format: in vivo; conditions: addition of a surfactant
Description: The object of this test was to evaluate the effect of surfactants and plant growth stage on the efficacy of the compound of this invention. Plastic windowsill pots were filled with planting medium and seeded with yellow nutsedge (Cyperus esculentus), large crabgrass (Digitaria sanguinalis), goosegrass (Elsusine indica), bermudagrass (Cynodon dactylon), broadleaf signalgrass (Brachiara platyphalla), smooth crabgrass (Digitaria ischaemum), guinea grass (Panicum maximum) and johnsongrass (Sorghum halapense). Coffee (Coffea spp) plants with 2 to 4 branches were included in one test.
Plants were treated postemergence with Compound I formulated with different surfactants or a non-phytotoxic carrier made up of acetone-humectant-water-surfactant.

[2] = tested on: Sandbur; experiment: Test 11 citrus pots, preemergence to the weeds; format: in vivo, Cenchrus echinatus; conditions: Preemergence 32 g/ha; 0.25% X-77 surfactant; scale 0-100
Protocol: (§1) Budded citrus seedlings were planted in 30-liter plastic pots which were also seeded with sandbur, guineagrass, narrowleaf panicum, common ragweed, yellow nutsedge, purple nutsedge and bindweed. Compound I was applied preemergence and postemergence to the weeds. Treatments were sprayed to simulate the trunk-to-trunk herbicide application method used in some citrus groves. The compound was also applied postemergence to weeds grown in windowsill flats. The flats were filled with planting medium and seeded with morningglory (Ipomoea spp.). purple nutsedge (Cyperus rotundus), pigweed (Amaranthus spp.), bindweed (Convolvulus spp.), narrowleaf panicum (Panicum maximum), common ragweed (Ambrosia artemisiifolia), sandbur (Cenchrus echinatus), itchgrass (Rottboellia exaltata), johnsongrass (Sorghum halepense), guineagrass (Panicum maximum), smooth crabgrass (Digitaria ischaemum), broadleaf signalgrass (Brachiaria platyphylla), bermudagrass (Cynodon dactylon), goosegrass (Eleusine indica), large crabgrass (Digitaria sanguinalis) and yellow nutsedge (Cyperus esculentus).
(§2) The compound was formulated and sprayed with 0.25% X-77 surfactant in water. Plants were visually rated 21 and 29 days after treatment and compared with appropriate controls. Injury ratings were based on the scale of 0 to 100, where 0 indicates no effect, 20 indicates minimum effect and 100 indicates complete control. […]

[3] = tested on: Nephrolepis exalata; experiment: Test 4 plantation crop weeds, postemergence; format: in vivo; conditions: Table 4, scale 0-100
Description: (§3) The object of this test was to evaluate the efficacy of the compound of this invention on weeds that infest some plantation crops at different growth stages of the weeds. Asystasia intrusa, Mikania cordata, goldenrod Solidago spp, Boston fern Nephrolepis exalata, and lalang Imparata cylindrica were planted in 15-cm plastic pots. Plants were sprayed postemergence with Compound I in a non-phytotoxic solvent. The Asystasia plants ranged in growth from 4 leaves to 9 leaves and very branched, Mikania had 6 leaves to vining, the goldenrod was branching and the Boston fern was growing vigorously. The degree of weed control was visually rated 20 to 24 days after treatment (DAT). Control ratings are based on the scale of 0 to 100 where 0 = no effect, 20 = minimal control and 100 = complete control. Variations in the results of the tests could be due to the fact that the tests were run at different times of the year or due to the stage of growth of the weeds.

[4] = tested on: Mikania cordata; experiment: Test 4 plantation crop weeds, postemergence; format: in vivo; conditions: scale 0-100
Description: as §3

[5] = tested on: Asystasia intrusa; experiment: Test 4 plantation crop weeds, postemergence; format: in vivo; conditions: scale 0-100; for Control Rating 24 DAT: Table 4, at 4-leaf stage
Description: as §3

[6] = tested on: Narrowleaf panicum; experiment: Test 11 citrus pots, preemergence to the weeds; format: in vivo, Panicum maximum; conditions: Preemergence 32 g/ha; 0.25% X-77 surfactant; scale 0-100
Protocol: as §1, §2

[7] = tested on: Guineagrass; experiment: Test 11 citrus pots, preemergence to the weeds; format: in vivo, Panicum maximum; conditions: Preemergence 32 g/ha; 0.25% X-77 surfactant; scale 0-100
Protocol: as §1, §2

[8] = tested on: Pigweed; experiment: Test 11 windowsill flats, postemergence; format: in vivo, Amaranthus spp.; conditions: Postemergence 32 g/ha, 0.25% X-77 surfactant, scale 0-100
Protocol: as §1, §2

[9] = tested on: Black mustard; experiment: Test 7 postemergence; format: in vivo, Brassica nigra; conditions: scale 0-100
Protocol: Individual 11.4-cm plastic pots filled with planting medium were seeded with rape, wild radish (Raphanus raphanistruna). tansy mustard (Descurainia pinnata), ball mustard (Neslia paniculata), black mustard (Brassica nigra), yellow mustard, brown mustard, lentils, safflower, flax, sunflower, peanut, vetch, alfalfa, field bean, pea, violet (Viola spp), Kochia (Kochia spp), Russian thistle (Salsola spp), Matricaria spp, groundsel (Senecio spp), shepherdspurse (Capsella bursa-pastoris), nightshade (Solanum spp), sowthistle (Sonchus spp), sugar beet, wheat, "Bonanza" barley and "Morex" barley, Kentucky bluegrass (Poa pratensis), red clover (Trifolium pratense), dandelion (Taraxacum spp) and buckhorn plantain (Plantago lanceolata).
Plants were treated postemergence with the compound formulated with a non-phytotoxic carrier. Plants were visually rated 18 days after treatment (DAT). Response ratings were based on the scale of 0 to 100 where 0 = no effect, 20 = minimal injury and 100 = complete control.

[10] = tested on: Lantana; experiment: Test 12 over-the-top application, postemergence; format: in vivo, Lantana camara; conditions: 26 days after treatment, scale 0-100
Description: The object of this test was to evaluate the safety of sour lemon to the over-the-top application of Compound I and control of lantana (Lantana camara) and trumpetcreeper (Campsis radicans). Plants were sprayed postemergence with Compound I formulated in a non-phytotoxic solvent. Treated plants were visually rated 26 days after treatment and compared with appropriate controls. Injury ratings were based on the scale of 0 to 100, where 0 indicates no effect, 20 indicates minimal effect and 100 indicates complete control.

[11] = Table 6, profusely branching, 8 g/ha
[12] = Table 6, profusely branching, 16 g/ha
[13] = Table 6, profusely branching, 32 g/ha
[14] = Table 6, profusely branching, 64 g/ha

## COC(=O)c1cccnc1S(=O)(=O)NC(=O)Nc1nc(OC)cc(OC)n1 [Compound I, 2-[[(4,6-dimethoxypyrimidin-2-yl)aminocarbonyl]aminosulfonyl]-3-pyridinecarboxylic acid, methyl ester]
[1]
  weed control: could improve the weed control
[2]
  Injury ratings: 100
[3]; 4 g/ha
  Control Rating 24 DAT: 0
[3]; 8 g/ha
  Control Rating 24 DAT: 0
[3]; 16 g/ha
  Control Rating 24 DAT: 40
[3]; 32 g/ha
  Control Rating 24 DAT: 60
[3]; 64 g/ha
  Control Rating 24 DAT: 80
[4]; Table 5, at 6 to 8-leaf stage, 8 g/ha
  Control Rating 20 DAT: 0
[4]; Table 5, at 6 to 8-leaf stage, 16 g/ha
  Control Rating 20 DAT: 0
[4]; Table 5, at 6 to 8-leaf stage, 32 g/ha
  Control Rating 20 DAT: 0
[4]; Table 5, at 6 to 8-leaf stage, 64 g/ha
  Control Rating 20 DAT: 30
[4]; [11]
  Control Rating 20 DAT: 0
[4]; [12]
  Control Rating 20 DAT: 0
[4]; [13]
  Control Rating 20 DAT: 0
[4]; [14]
  Control Rating 20 DAT: 0
[4]; Table 7, vining and profusely branching, 8 g/ha
  Control Rating 22 DAT: 0
[4]; Table 7, vining and profusely branching, 16 g/ha
  Control Rating 22 DAT: 0
[4]; Table 7, vining and profusely branching, 32 g/ha
  Control Rating 22 DAT: 0
[4]; Table 7, vining and profusely branching, 64 g/ha
  Control Rating 22 DAT: 20
[4]; Table 8, 16 g/ha
  Control Rating 22 DAT: 0
[4]; Table 8, 32 g/ha
  Control Rating 22 DAT: 0
[4]; Table 8, 64 g/ha
  Control Rating 22 DAT: 20
[5]; 4 g/ha
  Control Rating 24 DAT: 20
[5]; 8 g/ha
  Control Rating 24 DAT: 30
[5]; 16 g/ha
  Control Rating 24 DAT: 40
[5]; 32 g/ha
  Control Rating 24 DAT: 50
[5]; 64 g/ha
  Control Rating 24 DAT: 60
[5]; Table 5, at 6 to 9-leaf stage, 8 g/ha
  Control Rating 20 DAT: 0
[5]; Table 5, at 6 to 9-leaf stage, 16 g/ha
  Control Rating 20 DAT: 60
[5]; Table 5, at 6 to 9-leaf stage, 32 g/ha
  Control Rating 20 DAT: 90
[5]; Table 5, at 6 to 9-leaf stage, 64 g/ha
  Control Rating 20 DAT: 100
[5]; [11]
  Control Rating 20 DAT: 0
[5]; [12]
  Control Rating 20 DAT: 0
[5]; [13]
  Control Rating 20 DAT: 0
[5]; [14]
  Control Rating 20 DAT: 30
[6]
  Injury ratings: 80
[7]
  Injury ratings: 100
[8]
  Injury ratings: 100
[9]; 16 g/ha
  Plant Injury Rating 18 DAT: 100
[9]; 32 g/ha
  Plant Injury Rating 18 DAT: 100
[10]; 8 g/ha
  Injury ratings: 0
[10]; 16 g/ha
  Injury ratings: 10
[10]; 32 g/ha
  Injury ratings: 30
